Biological target: BRAF^V600E protein (Homo sapiens, UniProt P15056, V600E)
Experiment: HiBiT cellular BRAF V600E degradation assay
Format: cell-based
Settings: 24 h incubation; for DC50: A375.10 cells (HiBiT tag knocked in at N-terminal of BRAF V600E), concentration at which 50% of total cellular BRAF V600E is degraded; for Emax: A375.10 cells, Emax = amount of residual protein remaining in the cell after compound treatment, read-out: HiBit 24 h Emax

BRAF^V600E protein, sequence (P15056 whole entry V600E): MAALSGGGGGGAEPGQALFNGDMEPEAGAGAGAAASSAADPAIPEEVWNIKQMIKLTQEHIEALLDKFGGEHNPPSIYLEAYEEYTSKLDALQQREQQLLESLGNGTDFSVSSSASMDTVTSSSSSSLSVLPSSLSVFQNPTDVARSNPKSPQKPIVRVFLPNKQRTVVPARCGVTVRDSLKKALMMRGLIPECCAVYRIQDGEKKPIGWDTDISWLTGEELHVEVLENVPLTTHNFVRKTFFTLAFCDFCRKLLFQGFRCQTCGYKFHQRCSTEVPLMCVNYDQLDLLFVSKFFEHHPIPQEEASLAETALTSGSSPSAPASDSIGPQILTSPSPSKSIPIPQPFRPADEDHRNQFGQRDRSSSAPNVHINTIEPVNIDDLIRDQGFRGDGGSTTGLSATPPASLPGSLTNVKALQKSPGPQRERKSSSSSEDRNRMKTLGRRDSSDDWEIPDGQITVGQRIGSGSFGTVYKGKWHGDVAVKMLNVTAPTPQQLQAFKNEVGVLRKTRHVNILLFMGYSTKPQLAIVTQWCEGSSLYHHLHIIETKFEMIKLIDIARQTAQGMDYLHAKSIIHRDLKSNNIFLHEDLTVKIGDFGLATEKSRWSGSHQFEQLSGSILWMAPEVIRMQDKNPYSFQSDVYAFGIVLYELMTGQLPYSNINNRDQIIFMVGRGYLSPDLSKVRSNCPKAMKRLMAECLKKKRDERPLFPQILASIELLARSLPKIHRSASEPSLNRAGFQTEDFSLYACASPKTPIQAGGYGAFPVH

| DC50 [nM] | Emax [%] | SMILES |
| --- | --- | --- |
| 6.82 | 9.35 | CCN(C)S(=O)(=O)Nc1cccc(C(=O)c2c[nH]c3ncc(-c4ccc(N5CCN(C(=O)CC6(O)CCN(c7ccc(NC8CCC(=O)NC8=O)cc7Cl)CC6)CC5)nc4)cc23)c1F (stereo not shown) [Example 156, 5-[6-[4-[2-[1-[2-chloro-4-[(2,6-dioxo-3-piperidyl)amino]phenyl]-4-hydroxy-4-piperidyl]acetyl]piperazin-1-yl]-3-pyridyl]-3-[3-[[ethyl(methyl)sulfamoyl]amino]-2-fluoro-benzoyl]-1H-pyrrolo[2,3-b]pyridine] |
| 6.19 | 8.52 | CCN(C)S(=O)(=O)Nc1ccc(F)c(C(=O)c2c[nH]c3ncc(-c4cnc(N5CCN(C(=O)CC6(O)CCN(c7ccc(NC8CCC(=O)NC8=O)cc7Cl)CC6)CC5)nc4)cc23)c1F (stereo not shown) [Example 157, 5-[2-[4-[2-[1-[2-chloro-4-[(2,6-dioxo-3-piperidyl)amino]phenyl]-4-hydroxy-4-piperidyl]acetyl]piperazin-1-yl]pyrimidin-5-yl]-3-[3-[[ethyl(methyl)sulfamoyl]amino]-2,6-difluoro-benzoyl]-1H-pyrrolo[2,3-b]pyridine] |
| 10.8 | 11.7 | CCN(C)S(=O)(=O)Nc1ccc(F)c(C(=O)c2c[nH]c3ncc(-c4cnc(N5CCN(C(=O)CC6(OP(=O)(O)O)CCN(c7ccc(C8CCC(=O)NC8=O)cc7F)CC6)CC5)nc4)cc23)c1F (stereo not shown) [Example 158e, [1-[4-(2,6-dioxo-3-piperidyl)-2-fluoro-phenyl]-4-[2-[4-[5-[3-[3-[[ethyl(methyl)sulfamoyl]amino]-2,6-difluoro-benzoyl]-1H-pyrrolo[2,3-b]pyridin-5-yl]pyrimidin-2-yl]piperazin-1-yl]-2-oxo-ethyl]-4-piperidyl]dihydrogen phosphate] |
| 3.51 | 6.33 | CCN(C)S(=O)(=O)Nc1cccc(C(=O)c2c[nH]c3ncc(-c4ccc(N5CCN(C(=O)CC6(O)CCN(c7ccc(C8CCC(=O)NC8=O)cc7F)CC6)CC5)nc4)cc23)c1F (stereo not shown) [Example 159, 5-[6-[4-[2-[1-[4-(2,6-dioxo-3-piperidyl)-2-fluoro-phenyl]-4-hydroxy-4-piperidyl]acetyl]piperazin-1-yl]-3-pyridyl]-3-[3-[[ethyl(methyl)sulfamoyl]amino]-2-fluoro-benzoyl]-1H-pyrrolo[2,3-b]pyridine] |
| 3.12 | 6.7 | CCN(C)S(=O)(=O)Nc1ccc(F)c(C(=O)c2c[nH]c3ncc(-c4ccc(N5CCN(C(=O)CC6(O)CCN(c7ccc(C8CCC(=O)NC8=O)cc7F)CC6)CC5)nc4)cc23)c1F (stereo not shown) [Example 160, 5-[6-[4-[2-[1-[4-(2,6-dioxo-3-piperidyl)-2-fluoro-phenyl]-4-hydroxy-4-piperidyl]acetyl]piperazin-1-yl]-3-pyridyl]-3-[3-[[ethyl(methyl)sulfamoyl]amino]-2,6-difluoro-benzoyl]-1H-pyrrolo[2,3-b]pyridine] |
| 14.6 | 8.46 | CCN(C)S(=O)(=O)Nc1ccc(F)c(C(=O)c2c[nH]c3ncc(-c4cnc(N5CCC(n6cc7c(n6)CN(c6ccc(NC8CCC(=O)NC8=O)cc6)CC7)CC5)nc4)cc23)c1F (stereo not shown) [Example 161, 6-[4-[(2,6-dioxo-3-piperidyl)amino]phenyl]-2-[1-[5-[3-[3-[[ethyl(methyl)sulfamoyl]amino]-2,6-difluoro-benzoyl]-1H-pyrrolo[2,3-b]pyridin-5-yl]pyrimidin-2-yl]-4-piperidyl]-5,7-dihydro-4H-pyrazolo[3,4-c]pyridine] |
| 2.09 | 7.81 | CCN(C)S(=O)(=O)Nc1cccc(C(=O)c2c[nH]c3ncc(-c4cnc(N5CCN(C(=O)CC6(O)CCN(c7ccc(C8CCC(=O)NC8=O)cc7F)CC6)CC5)nc4)cc23)c1F (stereo not shown) [Example 162, 5-[2-[4-[2-[1-[4-(2,6-dioxo-3-piperidyl)-2-fluoro-phenyl]-4-hydroxy-4-piperidyl]acetyl]piperazin-1-yl]pyrimidin-5-yl]-3-[3-[[ethyl(methyl)sulfamoyl]amino]-2-fluoro-benzoyl]-1H-pyrrolo[2,3-b]pyridine] |
| 2.31 | 10.2 | CCN(C)S(=O)(=O)Nc1cccc(C(=O)c2c[nH]c3ncc(-c4ccc(N5CCN(C(=O)CC6(O)CCN(c7ccc(N8CCC(=O)NC8=O)cc7F)CC6)CC5)nc4)cc23)c1F [Example 164, 5-[6-[4-[2-[1-[4-(2,4-dioxohexahydropyrimidin-1-yl)-2-fluoro-phenyl]-4-hydroxy-4-piperidyl]acetyl]piperazin-1-yl]-3-pyridyl]-3-[3-[[ethyl(methyl)sulfamoyl]amino]-2-fluoro-benzoyl]-1H-pyrrolo[2,3-b]pyridine] |
| 6.27 | 10.8 | CCN(C)S(=O)(=O)Nc1cccc(C(=O)c2c[nH]c3ncc(-c4cnc(N5CCN(C(=O)CC6(O)CCN(c7ccc(N8CCC(=O)NC8=O)cc7F)CC6)CC5)nc4)cc23)c1F [Example 165, 5-[2-[4-[2-[1-[4-(2,4-dioxohexahydropyrimidin-1-yl)-2-fluoro-phenyl]-4-hydroxy-4-piperidyl]acetyl]piperazin-1-yl]pyrimidin-5-yl]-3-[3-[[ethyl(methyl)sulfamoyl]amino]-2-fluoro-benzoyl]-1H-pyrrolo[2,3-b]pyridine] |
| 7.05 | 9.37 | CCN(C)S(=O)(=O)Nc1ccc(F)c(C(=O)c2c[nH]c3ncc(-c4cnc(N5CCN(C(=O)CC6(O)CCN(c7ccc(N8CCC(=O)NC8=O)cc7F)CC6)CC5)nc4)cc23)c1F [Example 167, 5-[2-[4-[2-[1-[4-(2,4-dioxohexahydropyrimidin-1-yl)-2-fluoro-phenyl]-4-hydroxy-4-piperidyl]acetyl]piperazin-1-yl]pyrimidin-5-yl]-3-[3-[[ethyl(methyl)sulfamoyl]amino]-2,6-difluoro-benzoyl]-1H-pyrrolo[2,3-b]pyridine] |
| 3 | 10.2 | CCN(C)S(=O)(=O)Nc1ccc(F)c(C(=O)c2c[nH]c3ncc(-c4ccc(N5CCN(C(=O)CC6(O)CCN(c7ccc(N8CCC(=O)NC8=O)cc7F)CC6)CC5)nc4)cc23)c1F [Example 168, 5-[6-[4-[2-[1-[4-(2,4-dioxohexahydropyrimidin-1-yl)-2-fluoro-phenyl]-4-hydroxy-4-piperidyl]acetyl]piperazin-1-yl]-3-pyridyl]-3-[3-[[ethyl(methyl)sulfamoyl]amino]-2,6-difluoro-benzoyl]-1H-pyrrolo[2,3-b]pyridine] |
| 2.82 | 7.34 | CCN(C)S(=O)(=O)Nc1ccc(F)c(C(=O)c2c[nH]c3ncc(-c4ccc(N5CCN(C(=O)CC6(O)CCN(c7ccc(N8CCC(=O)NC8=O)cc7F)CC6)CC5)cc4)cc23)c1F [Example 169, 5-[4-[4-[2-[1-[4-(2,4-dioxohexahydropyrimidin-1-yl)-2-fluoro-phenyl]-4-hydroxy-4-piperidyl]acetyl]piperazin-1-yl]phenyl]-3-[3-[[ethyl(methyl)sulfamoyl]amino]-2,6-difluoro-benzoyl]-1H-pyrrolo[2,3-b]pyridine] |
| 4.59 | 10.5 | CCN(C)S(=O)(=O)Nc1ccc(F)c(C(=O)c2c[nH]c3ncc(-c4ccc(N5CCN(C(=O)CC6(O)CCN(c7ccc(NC8CCC(=O)NC8=O)cc7F)CC6)CC5)nc4)cc23)c1Cl (stereo not shown) [Example 170, 3-[2-chloro-3-[[ethyl(methyl)sulfamoyl]amino]-6-fluoro-benzoyl]-5-[6-[4-[2-[1-[4-[(2,6-dioxo-3-piperidyl)amino]-2-fluoro-phenyl]-4-hydroxy-4-piperidyl]acetyl]piperazin-1-yl]-3-pyridyl]-1H-pyrrolo[2,3-b]pyridine] |
| 5.87 | 7.61 | CCN(C)S(=O)(=O)Nc1ccc(F)c(C(=O)c2c[nH]c3ncc(-c4ccc(N5CCN(C(=O)CN6CCC(N7CCN(C8CCC(=O)NC8=O)C(=O)C7)C(F)(F)C6)CC5)nc4)cc23)c1F (stereo not shown) [Example 171, 5-[6-[4-[2-[4-[4-(2,6-dioxo-3-piperidyl)-3-oxo-piperazin-1-yl]-3,3-difluoro-1-piperidyl]acetyl]piperazin-1-yl]-3-pyridyl]-3-[3-[[ethyl(methyl)sulfamoyl]amino]-2,6-difluoro-benzoyl]-1H-pyrrolo[2,3-b]pyridine] |
| 4.67 | 6.28 | CCN(C)S(=O)(=O)Nc1ccc(F)c(C(=O)c2c[nH]c3ncc(-c4ccc(N5CCN(C(=O)CN6CCC(N7CCN(C8CCC(=O)NC8=O)C(=O)C7)C(F)(F)C6)CC5)cc4)cc23)c1F (stereo not shown) [Example 172, 5-[4-[4-[2-[4-[4-(2,6-dioxo-3-piperidyl)-3-oxo-piperazin-1-yl]-3,3-difluoro-1-piperidyl]acetyl]piperazin-1-yl]phenyl]-3-[3-[[ethyl(methyl)sulfamoyl]amino]-2,6-difluoro-benzoyl]-1H-pyrrolo[2,3-b]pyridine] |
| 6.37 | 7.19 | CCN(C)S(=O)(=O)Nc1ccc(F)c(C(=O)c2c[nH]c3ncc(-c4cnc(N5CCN(C(=O)CN6CCC(N7CCN(C8CCC(=O)NC8=O)C(=O)C7)C(F)(F)C6)CC5)nc4)cc23)c1F (stereo not shown) [Example 173, 5-[2-[4-[2-[4-[4-(2,6-dioxo-3-piperidyl)-3-oxo-piperazin-1-yl]-3,3-difluoro-1-piperidyl]acetyl]piperazin-1-yl]pyrimidin-5-yl]-3-[3-[[ethyl(methyl)sulfamoyl]amino]-2,6-difluoro-benzoyl]-1H-pyrrolo[2,3-b]pyridine] |

| SMILES | DC50 [nM] | Emax [%] |
| --- | --- | --- |
| CCN(C)S(=O)(=O)Nc1ccc(F)c(C(=O)c2c[nH]c3ncc(-c4cnc(N5CCN(C(=O)CC6(O)CCN(c7ccc8c(N9CCC(=O)NC9=O)nn(C)c8c7)CC6)CC5)nc4)cc23)c1F [Example 163, 3-(2,4-dioxohexahydropyrimidin-1-yl)-6-[4-[2-[4-[5-[3-[3-[[ethyl(methyl)sulfamoyl]amino]-2,6-difluoro-benzoyl]-1H-pyrrolo[2,3-b]pyridin-5-yl]pyrimidin-2-yl]piperazin-1-yl]-2-oxo-ethyl]-4-hydroxy-1-piperidyl]-1-methyl-indazole] | 4.52 | 9.67 |
